Assay: Absorbance and fluorescence spectra of 5-R-UMP analogues
Assay type: physicochemical
Conditions: for λmax: absorbance; for Emmax: fluorescence emission
Experimental: UV absorbance spectra were recorded on a PerkinElmer Lambda 25 UV-Vis spectrometer at ambient temperature in FarUV quartz cells (path length 1.0 cm). Fluorescence spectra were recorded on a PerkinElmer LS-45 spectrometer at ambient temperature in a quartz micro fluorescence cell (path length 1.0 cm).

SMILES	Fluo Intensity at 100 μM [a.u.]	λmax [nm]	Emmax [nm]
O=c1[nH]c(=O)n([C@@H]2O[C@H](COP(=O)(O)O)[C@@H](O)[C@H]2O)cc1-c1ccccc1 [2a, 5-Phenyluridine-5′-monophosphate]	40	278	403
Cc1ccc(-c2cn([C@@H]3O[C@H](COP(=O)(O)O)[C@@H](O)[C@H]3O)c(=O)[nH]c2=O)cc1[N+](=O)[O-] [2c]	6.7	279	434
CC(C)(C)OC(=O)NCc1cccc(-c2cn([C@@H]3O[C@H](COP(=O)(O)O)[C@@H](O)[C@H]3O)c(=O)[nH]c2=O)c1 [2d, 5-(3-N-BOC-aminomethylphenyl)-uridine-5′-monophosphate]	11.6	281	427
O=c1[nH]c(=O)n([C@@H]2O[C@H](COP(=O)(O)O)[C@@H](O)[C@H]2O)cc1-c1cccc(O)c1 [2e, 5-(3-Hydroxyphenyl)-uridine-5′-monophosphate]		285	
O=c1[nH]c(=O)n([C@@H]2O[C@H](COP(=O)(O)O)[C@@H](O)[C@H]2O)cc1-c1ccccc1O [2f, 5-(2-Hydroxyphenyl)-uridine-5′-monophosphate]	0.9	273	415
O=c1[nH]c(=O)n([C@@H]2O[C@H](COP(=O)(O)O)[C@@H](O)[C@H]2O)cc1-c1ccc2ccccc2c1 [2g, 5-(2-Naphtyl)-uridine-5′-monophosphate]	32.2	221	450
O=C(O)c1ccc(-c2cn([C@@H]3O[C@H](COP(=O)(O)O)[C@@H](O)[C@H]3O)c(=O)[nH]c2=O)cc1 [2h, 5-(4-Carboxyphenyl)-uridine-5′-monophosphate]	17.6	283	411
O=c1[nH]c(=O)n([C@@H]2O[C@H](COP(=O)(O)O)[C@@H](O)[C@H]2O)cc1-c1ccc(C(F)(F)F)cc1 [2i, 5-(4-Trifluoromethylphenyl)-uridine-5′-monophosphate]	5.3	280	383
COc1cncc(-c2cn([C@@H]3O[C@H](COP(=O)(O)O)[C@@H](O)[C@H]3O)c(=O)[nH]c2=O)c1 [2j, 5-(5-Methoxy-3-pyridyl)-uridine-5′-monophosphate]	74.8	289	414
CS(=O)(=O)c1cccc(-c2cn([C@@H]3O[C@H](COP(=O)(O)O)[C@@H](O)[C@H]3O)c(=O)[nH]c2=O)c1 [2k, 5-(3-Methanesulfonylphenyl)-uridine-5′-monophosphate]	5.3	278	382
O=c1[nH]c(=O)n([C@@H]2O[C@H](COP(=O)(O)O)[C@@H](O)[C@H]2O)cc1I [compound 1, 5-Iodouridine-5′-monophosphate]		262	377

Source: patent publication US9018370B2, “Derivatives of uridine phosphate and their uses in protein binding assays” (King's College London of Strand, priority 2009, dated 2015)
